The values below are quoted from earlier work in patent US11160791B2, “Dexmedetomidine injection premix formulation in ready to use (RTU) bags” (Medefil, Inc., priority 2018, dated 2021).

On to `Cc1cccc([C@H](C)c2cnc[nH]2)c1C` [dexmedetomidine], for which the “drug loss with a buffer” value (plastic containers, buffer system in the formulation, same prior patents) is roughly 10%. Besides, the “dexmedetomidine loss when sodium chloride is used” value (plastic containers, even with buffers present, U.S. Pat. No. 9,649,296) is “at least 10%”. Further, the “loss of the dexmedetomidine from the liquid composition” value (plastic materials, U.S. Pat. Nos. 8,242,158, 8,648,106, 8,436,033, 8,338,470) is “up to 20%”.
